Species: Rattus norvegicus
Experiment: DrugMatrix - Regimen: Daily Repeat
Format: toxicity, organism-based, Sprague-Dawley
Parameters: regimen Daily Repeat, gender Male, age 6-8 weeks
Conditions: in vivo, po, route oral GAVAGE, vehicle .5 % CMC; for ABSOLUTE BASOPHIL / ABSOLUTE EOSINOPHIL / ABSOLUTE LYMPHOCYTE / ABSOLUTE MONOCYTE / ABSOLUTE SEGMENTED NEUTROPHIL / BASOPHIL / EOSINOPHIL / ERYTHROCYTE COUNT / HEMATOCRIT / HEMOGLOBIN / LEUKOCYTE COUNT / LYMPHOCYTE / MEAN CORPUSCULAR HEMOGLOBIN / MEAN CORPUSCULAR HEMOGLOBIN CONCENTRATION / MEAN CORPUSCULAR VOLUME / MONOCYTE / NEUTROPHIL / NUCLEATED RED BLOOD CELLS / PLATELET COUNT: tissue Blood; for ALANINE AMINOTRANSFERASE / ALBUMIN / ALKALINE PHOSPHATASE / ASPARTATE AMINOTRANSFERASE / BLOOD UREA NITROGEN / CARBON DIOXIDE / CHLORIDE / CHOLESTEROL / CREATINE PHOSPHOKINASE / CREATININE / GLUCOSE / LACTATE DEHYDROGENASE / LIPASE / PHOSPHORUS / POTASSIUM / SODIUM / TOTAL BILIRUBIN / TOTAL PROTEIN / URIC ACID: tissue Plasma
[1] = 50 mg/kg, 120 h, dose level Low, time 5 day
[2] = 1500 mg/kg, 72 h, dose level High, time 3 day
[3] = 1500 mg/kg, 120 h, dose level High, time 5 day

CN(C)[C@@H]1C(O)=C(C(N)=O)C(=O)[C@@]2(O)C(O)=C3C(=O)c4c(O)ccc(Cl)c4[C@@](C)(O)[C@H]3C[C@@H]12 [CHLORTETRACYCLINE]
ABSOLUTE BASOPHIL [1]: 0 CELLS/uL
ABSOLUTE EOSINOPHIL [1]: 0 CELLS/uL
ABSOLUTE LYMPHOCYTE [1]: 12641 CELLS/uL
ABSOLUTE MONOCYTE [1]: 0 CELLS/uL
ABSOLUTE SEGMENTED NEUTROPHIL [1]: 859 CELLS/uL
BASOPHIL [1]: 0%
EOSINOPHIL [1]: 0%
ERYTHROCYTE COUNT [1]: 5.53 x10E6/uL
HEMATOCRIT [1]: 33.27%
HEMOGLOBIN [1]: 13.43 G/DL
LEUKOCYTE COUNT [1]: 13.5 x10E3/uL
LYMPHOCYTE [1]: 93.33%
MEAN CORPUSCULAR HEMOGLOBIN [1]: 24.33 pg
MEAN CORPUSCULAR HEMOGLOBIN CONCENTRATION [1]: 40.4 G/DL
MEAN CORPUSCULAR VOLUME [1]: 60.17 fL
MONOCYTE [1]: 0%
NEUTROPHIL [1]: 6.67%
NUCLEATED RED BLOOD CELLS [1]: 0 /100WBC
PLATELET COUNT [1]: 1240.33 x10E3/uL
ALANINE AMINOTRANSFERASE [1]: 54 u/L
ALBUMIN [1]: 4.03 G/DL
ALKALINE PHOSPHATASE [1]: 291.33 u/L
ASPARTATE AMINOTRANSFERASE [1]: 84 u/L
BLOOD UREA NITROGEN [1]: 17.33 mg/dL
CARBON DIOXIDE [1]: 22.67 mmol/L
CHLORIDE [1]: 103.33 MEQ/L
CHOLESTEROL [1]: 58.33 mg/dL
CREATINE PHOSPHOKINASE [1]: 329.33 u/L
CREATININE [1]: 0.2 mg/dL
GLUCOSE [1]: 159.67 mg/dL
LACTATE DEHYDROGENASE [1]: 155.33 u/L
LIPASE [1]: 9.33 u/L
PHOSPHORUS [1]: 12.97 mg/dL
POTASSIUM [1]: 6.97 MEQ/L
SODIUM [1]: 144.3 MEQ/L
TOTAL BILIRUBIN [1]: 0.17 mg/dL
TOTAL PROTEIN [1]: 5.73 G/DL
URIC ACID [1]: 2.13 mg/dL
ABSOLUTE BASOPHIL [2]: 0 CELLS/uL
ABSOLUTE EOSINOPHIL [2]: 19 CELLS/uL
ABSOLUTE LYMPHOCYTE [2]: 5616.67 CELLS/uL
ABSOLUTE MONOCYTE [2]: 262.67 CELLS/uL
ABSOLUTE SEGMENTED NEUTROPHIL [2]: 601.67 CELLS/uL
BASOPHIL [2]: 0%
EOSINOPHIL [2]: 0.33%
ERYTHROCYTE COUNT [2]: 5.83 x10E6/uL
HEMATOCRIT [2]: 36%
HEMOGLOBIN [2]: 14.6 G/DL
LEUKOCYTE COUNT [2]: 6.5 x10E3/uL
LYMPHOCYTE [2]: 86%
MEAN CORPUSCULAR HEMOGLOBIN [2]: 25.13 pg
MEAN CORPUSCULAR HEMOGLOBIN CONCENTRATION [2]: 40.57 G/DL
MEAN CORPUSCULAR VOLUME [2]: 61.8 fL
MONOCYTE [2]: 4%
NEUTROPHIL [2]: 9.67%
NUCLEATED RED BLOOD CELLS [2]: 0 /100WBC
PLATELET COUNT [2]: 1359 x10E3/uL
ALANINE AMINOTRANSFERASE [2]: 54 u/L
ALBUMIN [2]: 4.27 G/DL
ALKALINE PHOSPHATASE [2]: 407 u/L
ASPARTATE AMINOTRANSFERASE [2]: 99.33 u/L
BLOOD UREA NITROGEN [2]: 17 mg/dL
CARBON DIOXIDE [2]: 25 mmol/L
CHLORIDE [2]: 104.33 MEQ/L
CHOLESTEROL [2]: 70.33 mg/dL
CREATINE PHOSPHOKINASE [2]: 633 u/L
CREATININE [2]: 0.16 mg/dL
GLUCOSE [2]: 163.67 mg/dL
LACTATE DEHYDROGENASE [2]: 129.67 u/L
LIPASE [2]: 9.33 u/L
PHOSPHORUS [2]: 12.37 mg/dL
POTASSIUM [2]: 5.95 MEQ/L
SODIUM [2]: 148.37 MEQ/L
TOTAL BILIRUBIN [2]: 0.23 mg/dL
TOTAL PROTEIN [2]: 6 G/DL
URIC ACID [2]: 1.87 mg/dL
ABSOLUTE BASOPHIL [3]: 0 CELLS/uL
ABSOLUTE EOSINOPHIL [3]: 167.33 CELLS/uL
ABSOLUTE LYMPHOCYTE [3]: 18100 CELLS/uL
ABSOLUTE MONOCYTE [3]: 0 CELLS/uL
ABSOLUTE SEGMENTED NEUTROPHIL [3]: 1266 CELLS/uL
BASOPHIL [3]: 0%
EOSINOPHIL [3]: 0.67%
ERYTHROCYTE COUNT [3]: 5.62 x10E6/uL
HEMATOCRIT [3]: 34.33%
HEMOGLOBIN [3]: 13.93 G/DL
LEUKOCYTE COUNT [3]: 19.53 x10E3/uL
LYMPHOCYTE [3]: 92.67%
MEAN CORPUSCULAR HEMOGLOBIN [3]: 24.83 pg
MEAN CORPUSCULAR HEMOGLOBIN CONCENTRATION [3]: 40.6 G/DL
MEAN CORPUSCULAR VOLUME [3]: 61.17 fL
MONOCYTE [3]: 0%
NEUTROPHIL [3]: 6.67%
NUCLEATED RED BLOOD CELLS [3]: 0.33 /100WBC
PLATELET COUNT [3]: 1340 x10E3/uL
ALANINE AMINOTRANSFERASE [3]: 61.33 u/L
ALBUMIN [3]: 3.73 G/DL
ALKALINE PHOSPHATASE [3]: 422.33 u/L
ASPARTATE AMINOTRANSFERASE [3]: 86.33 u/L
BLOOD UREA NITROGEN [3]: 19.67 mg/dL
CARBON DIOXIDE [3]: 28.67 mmol/L
CHLORIDE [3]: 100.67 MEQ/L
CHOLESTEROL [3]: 57 mg/dL
CREATINE PHOSPHOKINASE [3]: 301.67 u/L
CREATININE [3]: 0.19 mg/dL
GLUCOSE [3]: 151.33 mg/dL
LACTATE DEHYDROGENASE [3]: 67 u/L
LIPASE [3]: 10.33 u/L
PHOSPHORUS [3]: 11.03 mg/dL
POTASSIUM [3]: 5.95 MEQ/L
SODIUM [3]: 144.1 MEQ/L
TOTAL BILIRUBIN [3]: 0.17 mg/dL
TOTAL PROTEIN [3]: 5.23 G/DL
URIC ACID [3]: 1.57 mg/dL

— ChEMBL document CHEMBL3885881, “DrugMatrix”
